Experimental data taken from patent publication US9611275B2 (priority 2012, dated 2017).

Experiment: Assay for determination of apparent permeability (Papp), bi-directional transport
Conditions: pig, LLC-PK1

| Structure (SMILES) | Papp at 3 h, 1 μM [×10⁻⁶ cm/s] |
| --- | --- |
| CN(C)C1=N[C@@H]2[C@@H](O)[C@H](O)[C@@H]([C@H](OCc3cccc(F)c3)C(F)(F)F)O[C@@H]2S1 [Example 63, (3aR,5S,6S,7R,7aR)-2-(dimethylamino)-5-((S)-2,2,2-trifluoro-1-(3-fluorobenzyloxy)ethyl)-5,6,7,7a-tetrahydro-3aH-pyrano[3,2-d]thiazole-6,7-diol] | 31.2 |
| CN(C)C1=N[C@@H]2[C@@H](O)[C@H](O)[C@@H]([C@@H](OCc3cccc(C(F)(F)F)c3)C(F)(F)F)O[C@@H]2S1 [Example 67, (3aR,5S,6S,7R,7aR)-2-(dimethylamino)-5-((R)-2,2,2-trifluoro-1-(3-(trifluoromethyl)benzyloxy)ethyl)-5,6,7,7a-tetrahydro-3aH-pyrano[3,2-d]thiazole-6,7-diol] | 29.5 |
| CN(C)C1=N[C@@H]2[C@@H](O)[C@H](O)[C@@H]([C@@H](OCc3ccccc3C(F)(F)F)C(F)(F)F)O[C@@H]2S1 [Example 68, (3aR,5S,6S,7R,7aR)-2-(dimethylamino)-5-((R)-2,2,2-trifluoro-1-(2-(trifluoromethyl)benzyloxy)ethyl)-5,6,7,7a-tetrahydro-3aH-pyrano[3,2-d]thiazole-6,7-diol] | 34.1 |
| CN(C)C1=N[C@@H]2[C@@H](O)[C@H](O)[C@@H]([C@@H](OCc3ccc(CF)cc3)C(F)(F)F)O[C@@H]2S1 [Example 69, (3aR,5S,6S,7R,7aR)-2-(dimethylamino)-5-((R)-2,2,2-trifluoro-1-(4-(fluoromethyl)benzyloxy)ethyl)-5,6,7,7a-tetrahydro-3aH-pyrano[3,2-d]thiazole-6,7-diol] | 31.1 |
| CCN(C)C1=N[C@@H]2[C@@H](O)[C@H](O)[C@@H]([C@H](OC)C(F)(F)F)O[C@@H]2S1 [Example 72, (3aR,5S,6S,7R,7aR)-2-(ethyl(methyl)amino)-5-((S)-2,2,2-trifluoro-1-methoxyethyl)-5,6,7,7a-tetrahydro-3aH-pyrano[3,2-d]thiazole-6,7-diol] | 25.4 |
| CCN(C)C1=N[C@@H]2[C@@H](O)[C@H](O)[C@@H]([C@@H](OC)C(F)(F)F)O[C@@H]2S1 [Example 73, (3aR,5S,6S,7R,7aR)-2-(ethyl(methyl)amino)-5-((R)-2,2,2-trifluoro-1-methoxyethyl)-5,6,7,7a-tetrahydro-3aH-pyrano[3,2-d]thiazole-6,7-diol] | 19.9 |
| CNC1=N[C@@H]2[C@@H](O)[C@H](O)[C@@H]([C@@H](OCCC3CCCCC3)C(F)(F)F)O[C@@H]2S1 [Example 80, (3aR,5S,6S,7R,7aR)-5-((R)-1-(2-cyclohexylethoxy)-2,2,2-trifluoroethyl)-2-(methylamino)-5,6,7,7a-tetrahydro-3aH-pyrano[3,2-d]thiazole-6,7-diol] | 28.5 |
| CNC1=N[C@@H]2[C@@H](O)[C@H](O)[C@@H]([C@@H](OCCCc3ccc(F)cc3)C(F)(F)F)O[C@@H]2S1 [Example 83, (3aR,5S,6S,7R,7aR)-2-(methylamino)-5-((R)-2,2,2-trifluoro-1-(3-(4-fluorophenyl)propoxy)ethyl)-5,6,7,7a-tetrahydro-3aH-pyrano[3,2-d]thiazole-6,7-diol] | 29.7 |
| CNC1=N[C@@H]2[C@@H](O)[C@H](O)[C@@H]([C@@H](OCc3ccccc3)C(F)(F)F)O[C@@H]2S1 [Example 84, (3aR,5S,6S,7R,7aR)-5-((R)-1-(benzyloxy)-2,2,2-trifluoroethyl)-2-(methylamino)-5,6,7,7a-tetrahydro-3aH-pyrano[3,2-d]thiazole-6,7-diol] | 27 |
| CCc1ccc(CO[C@H]([C@H]2O[C@@H]3SC(NC)=N[C@@H]3[C@@H](O)[C@@H]2O)C(F)(F)F)cc1 [Example 86, (3aR,5S,6S,7R,7aR)-5-((R)-1-(4-ethylbenzyloxy)-2,2,2-trifluoroethyl)-2-(methylamino)-5,6,7,7a-tetrahydro-3aH-pyrano[3,2-d]thiazole-6,7-diol] | 29.9 |
| CNC1=N[C@@H]2[C@@H](O)[C@H](O)[C@@H]([C@@H](OCc3ccccc3C(F)(F)F)C(F)(F)F)O[C@@H]2S1 [Example 93, (3aR,5S,6S,7R,7aR)-2-(methylamino)-5-((R)-2,2,2-trifluoro-1-(2-(trifluoromethyl)benzyloxy)ethyl)-5,6,7,7a-tetrahydro-3aH-pyrano[3,2-d]thiazole-6,7-diol] | 29.2 |
| CNC1=N[C@@H]2[C@@H](O)[C@H](O)[C@@H]([C@@H](OCc3ccc(C(F)(F)F)cc3)C(F)(F)F)O[C@@H]2S1 [Example 94, (3aR,5S,6S,7R,7aR)-2-(mcthylamino)-5-((R)-2,2,2-trifluoro-1-(4-(trifluoromethyl)benzyloxy)ethyl)-5,6,7,7a-tetrahydro-3aH-pyrano[3,2-d]thiazole-6,7-diol] | 24.6 |
| CNC1=N[C@@H]2[C@@H](O)[C@H](O)[C@@H]([C@@H](OCc3ccc(OC)cc3)C(F)(F)F)O[C@@H]2S1 [Example 97, 2-(methylamino)-5-(2,2,2-trifluoro-1-(4-methoxybenzyloxy)ethyl)-5,6,7,7a-tetrahydro-3aH-pyrano[3,2-d]thiazole-6,7-diol] | 24.7 |
| CNC1=N[C@@H]2[C@@H](O)[C@H](O)[C@@H]([C@@H](OCc3ccc(OC)c(C(F)(F)F)c3)C(F)(F)F)O[C@@H]2S1 [Example 98, (3aR,5S,6S,7R,7aR)-2-(methylamino)-5-((R)-2,2,2-trifluoro-1-(4-methoxy-3-(trifluoromethyl)benzyloxy)ethyl)-5,6,7,7a-tetrahydro-3aH-pyrano[3,2-d]thiazole-6,7-diol] | 29.1 |
| CNC1=N[C@@H]2[C@@H](O)[C@H](O)[C@@H]([C@@H](OCc3ccc(Oc4ccccc4)cc3)C(F)(F)F)O[C@@H]2S1 [Example 99, (3aR,5S,6S,7R,7aR)-2-(methylamino)-5-((R)-2,2,2-trifluoro-1-(4-phenoxybenzyloxy)ethyl)-5,6,7,7a-tetrahydro-3aH-pyrano[3,2-d]thiazole-6,7-diol] | 21.7 |
| CCc1cc(CO[C@H]([C@H]2O[C@@H]3SC(NC)=N[C@@H]3[C@@H](O)[C@@H]2O)C(F)(F)F)ccc1OC [Example 100, (3aR,5S,6S,7R,7aR)-5-((R)-1-(3-ethyl-4-methoxybenzyloxy)-2,2,2-trifluoroethyl)-2-(methylamino)-5,6,7,7a-tetrahydro-3aH-pyrano[3,2-d]thiazole-6,7-diol] | 28.1 |
| CNC1=N[C@@H]2[C@@H](O)[C@H](O)[C@@H]([C@@H](OCc3cc(C)c(OC)c(C)c3)C(F)(F)F)O[C@@H]2S1 [Example 101, (3aR,5S,6S,7R,7aR)-2-(methylamino)-5-((R)-2,2,2-trifluoro-1-(4-methoxy-3,5-dimethylbenzyloxy)ethyl)-5,6,7,7a-tetrahydro-3aH-pyrano[3,2-d]thiazole-6,7-diol] | 28.9 |
| CN(C)C1=N[C@@H]2[C@@H](O)[C@H](O)[C@@H]([C@@H](Oc3ccccc3)C(F)(F)F)O[C@@H]2S1 [Example 107, (3aR,5S,6S,7R,7aR)-2-(dimethylamino)-5-((R)-2,2,2-trifluoro-1-phenoxyethyl)-5,6,7,7a-tetrahydro-3aH-pyrano[3,2-d]thiazole-6,7-diol] | 31.3 |
| COc1ccc(CO[C@@H](C)[C@H]2O[C@@H]3SC(N(C)C)=N[C@@H]3[C@@H](O)[C@@H]2O)cc1 [Example 109, (3aR,5S,6S,7R,7aR)-2-(dimethylamino)-5-((S)-1-(4-methoxybenzyloxy)ethyl)-5,6,7,7a-tetrahydro-3aH-pyrano[3,2-d]thiazole-6,7-diol] | 26.3 |
